ChEMBL document CHEMBL1140748, “Synthesis and biological evaluation of novel 2,4-diaminoquinazoline derivatives as SMN2 promoter activators for the potential treatment of spinal muscular atrophy” (J Med Chem, 2008)

Experiments:
[1] = Activation of SMN2 promoter in mouse NSC34 cells assessed as induction of beta-lactamase activity relative to nonactivated cells; assay type: functional
[2] = Activation of SMN2 promoter in mouse NSC34 cells assessed as induction of beta-lactamase activity; assay type: functional, cell-based
Wherever activity is given: test concentration or dose not given here.

SMILES	Activity [1]	EC50 ([2]; Mus musculus, NSC-34) [nM]	EC50 ([2]; nsc34) [nM]
Nc1nc(N)c2c(OCc3cc(F)ccc3F)cccc2n1	2	47	
Nc1nc(N)c2c(OCc3ccccc3C(F)(F)F)cccc2n1	1.6	16	
Nc1nc(N)c2c(OCc3cccs3)cccc2n1	1.9	73	
CC(C)(C)C(Oc1cccc2nc(N)nc(N)c12)c1ccc(Cl)cc1 (racemic)		7760	
CCCCCCCCCOc1cccc2nc(N)nc(N)c12	1.7	550	
Nc1nc(N)c2c(OCC3CCN(Cc4ccc(F)c(F)c4)CC3)cccc2n1	2	322	
Nc1nc(N)c2c(Oc3ccc(Cl)cc3)cccc2n1	1.84	2060	
COc1ccc(OCc2cccc3nc(N)nc(N)c23)cc1	2.1	1400	
Nc1nc(N)c2c(OCC3CCN(S(=O)(=O)c4ccccc4Cl)CC3)cccc2n1	2.1	897	
CCCCCOc1cccc2nc(N)nc(N)c12	2.1	190	
Cc1cc(COc2cccc3nc(N)nc(N)c23)no1	2.2	280	
CC(Oc1cccc2nc(N)nc(N)c12)c1ccc(C(F)(F)F)cc1 (racemic)		50	
CC(Oc1cccc2nc(N)nc(N)c12)c1cc(F)cc(F)c1 (racemic)		35	
CC(C)(C)COc1cccc2nc(N)nc(N)c12	2.1	650	
Nc1nc(N)c2c(Oc3cccc(Cl)c3)cccc2n1	1.74	480	
CCCOc1cccc2nc(N)nc(N)c12	2.1	180	
Nc1nc(N)c2c(OCc3cc4ccccc4cn3)cccc2n1	2.3	220	
CCCCOc1cccc2nc(N)nc(N)c12	2.2	140	
C[C@H](Oc1cccc2nc(N)nc(N)c12)c1cccc2ccccc12		2390	
Nc1nc(N)c2c(OCC3CCCC3)cccc2n1	1.9	470	
Nc1nc(N)c2c(OCC3CCN(S(=O)(=O)c4cccc(Cl)c4)CC3)cccc2n1	1.9	172	
CC(Oc1cccc2nc(N)nc(N)c12)c1ccccc1 (racemic)		240	
CCOc1cccc2nc(N)nc(N)c12	2.1	170	
Nc1nc(N)c2c(OCc3ccc(F)cc3)cccc2n1	1.8	53	
Nc1nc(N)c2c(OCC3CCN(C(=O)c4ccc(Cl)cc4)CC3)cccc2n1	2.4	81	
CC(Oc1cccc2nc(N)nc(N)c12)c1ccccc1Cl (racemic)		290	
Nc1nc(N)c2c(OCC3CCN(C(=O)c4ccccc4F)CC3)cccc2n1	2.5	74	

SMILES	Activity [1]	EC50 ([2]; Mus musculus, NSC-34) [nM]	EC50 ([2]; nsc34) [nM]
Nc1nc(N)c2c(OCC3CCN(S(=O)(=O)c4ccc(F)cc4F)CC3)cccc2n1	2	82	
Nc1nc(N)c2c(OCC3CCN(S(=O)(=O)c4cccc5ccccc45)CC3)cccc2n1	1.9	350	
Nc1nc(N)c2c(Oc3ccccc3Cl)cccc2n1	1.76	510	
Cc1ccccc1C(=O)N1CCC(COc2cccc3nc(N)nc(N)c23)CC1	2.5	160	
Cc1ccc(Oc2cccc3nc(N)nc(N)c23)cc1	1.6	1210	
CC(Oc1cccc2nc(N)nc(N)c12)c1ccccc1C(F)(F)F (racemic)		1010	
Nc1nc(N)c2c(OCc3ccccc3Cl)cccc2n1	2	140	
Nc1nc(N)c2c(OCc3cccnc3)cccc2n1	2.1	24	
Nc1nc(N)c2c(COc3ccccc3Cl)cccc2n1	2.2	1160	
Nc1nc(N)c2c(OCc3cccc(C(F)(F)F)c3)cccc2n1	1.5	23	
Nc1nc(N)c2c(OCc3c(F)cccc3F)cccc2n1	1.8	190	
CC(Oc1cccc2nc(N)nc(N)c12)c1cccc(F)c1 (racemic; form 1)			55
Nc1nc(N)c2c(OCC3CCN(S(=O)(=O)c4ccc(F)c(F)c4)CC3)cccc2n1	2.1	40	
Nc1nc(N)c2c(OC3(c4cccc(Cl)c4)CCCCC3)cccc2n1		1710	
COc1cccc(COc2cccc3nc(N)nc(N)c23)c1	1.6	66	
Nc1nc(N)c2c(Oc3ccc(F)cc3)cccc2n1	1.7	1320	
Nc1nc(N)c2c(OCC3CCN(Cc4cccc5ccccc45)CC3)cccc2n1	2	43	
Nc1nc(N)c2c(Oc3ccc4cnccc4c3)cccc2n1	2.3	1260	
Nc1nc(N)c2c(OCC3CCN(C(=O)c4ccc5ccccc5c4)CC3)cccc2n1	2.4	151	
Cl.Nc1nc(N)c2c(OCC3CCN(Cc4ccc(F)cc4F)CC3)cccc2n1	1.9	18	
Cc1ccc(COc2cccc3nc(N)nc(N)c23)cc1	2.04	220	
CC(Oc1cccc2nc(N)nc(N)c12)c1ccc(Cl)c(Cl)c1 (racemic)		320	
Nc1nc(N)c2c(OCc3ccco3)cccc2n1	1.7	300	
Cc1ccccc1COc1cccc2nc(N)nc(N)c12	1.6	280	
Nc1nc(N)c2c(OCc3ccc(F)cc3F)cccc2n1	1.8	120	
Cc1cccc(S(=O)(=O)N2CCC(COc3cccc4nc(N)nc(N)c34)CC2)c1	1.8	221	
Cc1cccc(CN2CCC(COc3cccc4nc(N)nc(N)c34)CC2)c1	1.9	22	

SMILES	Activity [1]	EC50 ([2]; Mus musculus, NSC-34) [nM]	EC50 ([2]; nsc34) [nM]
CC(Oc1cccc2nc(N)nc(N)c12)c1cccc(F)c1 (racemic; form 2)		50	
Nc1nc(N)c2c(OCC3CCN(C(=O)c4cccc(F)c4F)CC3)cccc2n1	2.5	67	
Nc1nc(N)c2c(OCc3cccc(F)c3)cccc2n1	1.59	55	
C[C@@H](Oc1cccc2nc(N)nc(N)c12)c1ccccc1		220	
Cc1ccccc1S(=O)(=O)N1CCC(COc2cccc3nc(N)nc(N)c23)CC1	2	545	
CC(C)COc1cccc2nc(N)nc(N)c12	1.8	180	
Nc1nc(N)c2c(OCC3CCN(C(=O)c4cccc5ccccc45)CC3)cccc2n1	2.5	35	
COc1ccc(COc2cccc3nc(N)nc(N)c23)cc1	1.7	300	
Nc1nc(N)c2c(OCc3ccccn3)cccc2n1	1.9	250	
Nc1nc(N)c2c(OC3(c4cccc(Cl)c4)CC3)cccc2n1		290	
Cc1ccc(C(=O)N2CCC(COc3cccc4nc(N)nc(N)c34)CC2)cc1	2.6	133	
Nc1nc(N)c2c(OCC3CCCCC3)cccc2n1	1.9	2710	
Nc1nc(N)c2c(COc3ccc(Cl)cc3)cccc2n1	2	190	
Nc1nc(N)c2c(OCC3CCN(Cc4ccc5ccccc5c4)CC3)cccc2n1	1.7	148	
Cl.Nc1nc(N)c2c(Oc3cccc4cnccc34)cccc2n1	2.04	1030	
Nc1nc(N)c2c(OCC3CCN(C(=O)c4ccc(F)cc4F)CC3)cccc2n1	2.4	89	
C[C@@H](Oc1cccc2nc(N)nc(N)c12)c1cccc(Cl)c1		32	
C[C@H](Oc1cccc2nc(N)nc(N)c12)c1ccc2ccccc2c1		440	
CC(Oc1cccc2nc(N)nc(N)c12)c1ccc2c(c1)OCO2 (racemic)		1130	
CCC(Oc1cccc2nc(N)nc(N)c12)c1ccc(Cl)cc1 (racemic)		170	
C[C@H](Oc1cccc2nc(N)nc(N)c12)c1ccccc1		60	
CC(Oc1cccc2nc(N)nc(N)c12)c1cccc(C(F)(F)F)c1 (racemic)		47	
CC(C)(Oc1cccc2nc(N)nc(N)c12)c1cccc(Cl)c1		2330	
CC(Oc1cccc2nc(N)nc(N)c12)c1ccc(Cl)cc1 (racemic)		80	
CC(Oc1cccc2nc(N)nc(N)c12)c1ccc(F)cc1 (racemic)		18	
